Laboratory results published in article PMC5289826 (PLoS ONE, 2017).

Assays:
[1] = molecular target: T1, recombinant human 11β-HSD1 (Homo sapiens, UniProt P28845); experiment: 11β-HSD1 enzyme activity in cell lysates (cortisone to cortisol, radiolabeled tracer, TLC); format: biochemical; conditions: for 11β-HSD1 Residual activity, % of control at 100 nM: 100 nM compound; for 11β-HSD1 Residual activity, % of control at 100 nM / 11β-HSD1 Residual activity, % of control at 1 μM: lysates of HEK-293 cells, 200 nM cortisone, mean of three experiments; for 11β-HSD1 Residual activity, % of control at 1 μM: 1 μM compound; for activity towards 11β-HSD1, effect of substituent (in words): SAR comparison within the series
T1 construct: expressed in transfected cells
Protocol: (§1) Human embryonic kidney (HEK-293) cells either stably expressing human 11β-HSD1 and H6PDH (HHH7 clone, [38]) or 11β-HSD2 (AT8 clone, [39]), or transiently expressing human 17β-HSD1 or 17β-HSD2, were cultivated in Dulbecco’s modified Eagle medium (DMEM) containing 4.5 g/L glucose, 10% fetal bovine serum, 100 U/mL penicillin, 0.1 mg/mL streptomycin, 1 × MEM nonessential amino acids, and 10 mM HEPES buffer, pH 7.4. Cells were washed with phosphate-buffered saline (PBS), centrifuged for 4 min at 150 × g, and the cell pellets were snap frozen on dry ice and stored at −80°C until further use.
(§2) Cell lysates were resuspended in TS2 buffer (100 mM NaCl, 1 mM EGTA, 1 mM EDTA, 1 mM MgCl2, 250 mM sucrose, 20 mM Tris-HCl, pH 7.4), followed by sonication at 4°C using a Hielscher UP50H ultrasonic processor (0.3 cycle, 20 amplitude %, 20 impulses; Hielscher Ultrasonics GmbH, Teltow Germany). Cell lysates, reaction mixture, and either vehicle (DMSO) or inhibitor were incubated for 10 min at 37°C in a final volume of 22.2 μL. The solvent concentration was 0.1%. […] 11β-HSD2 activity was measured in the presence of 50 nM cortisol and 500 μM NAD^+. An amount of 50 nCi of radiolabeled tracer substrate was included in the experiments. […] The bands of the corresponding steroids were excised, followed by scintillation counting and calculation of the amount of substrate conversion. Data were obtained from at least three independent measurements. Glycyrrhetinic acid (CTRL 1) was used as positive control for 11β-HSD1 and 11β-HSD2 inhibition, apigenin (CTRL 2) for 17β-HSD1, and compound 22 from Vuorinen et al. [40](CTRL 3) for 17β-HSD2 inhibition.

[2] = test system: T2, recombinant human 11β-HSD2; experiment: 11β-HSD2 enzyme activity in cell lysates (cortisol to cortisone); format: biochemical; conditions: 1 μM compound; lysates of HEK-293 cells; 50 nM cortisol
T2 construct: expressed in transfected cells
Protocol: as §1, §2

human skin biopsies = experiment: Dermal total collagen content in ex vivo human skin biopsies (Picrosirius Red); conditions: 10 nM, 100 nM and 1 μM cortisone; p<0.01
Protocol: Ex vivo skin experiments were performed as contract research by Cutech Biotechnology following the Helsinki declaration and who obtained permission as well as informed consent from the patient (Padova, Italy). Human skin from abdominal plastic surgery of a donor was used. Skin samples were cut in pieces of approximately 8 × 3 mm (diameter × thickness) and cultured in an air-liquid interface in a perforated ring of stainless steel in contact with culture medium (modified Williams’ E medium, Sigma Aldrich) up to day 6. The culture medium was renewed on day 0 and day 3. The test compounds were applied topically and renewed daily. The application was performed as follows: skin biopsies were gently cleaned with a cotton pad and 4 μL of 10 μM or 100 μM test compound were applied on top of each piece and covered with a 6 mm (diameter) delivery membrane (CoTran 9728 Controlled Caliper Ethylene Vinyl Acetate Membrane, 3M, St. Paul, MN, USA).
Skin viability was assessed in two skin biopsies after 6 days of treatment using methylthiazolyldiphenyl‐tetrazolium bromide (MTT, Sigma Aldrich) staining. Total dermal collagen in skin sections was semi-quantitatively evaluated by Picrosirius Red histochemical staining (using Picric Acid, Fast Green FCF and Direct Red from Sigma Aldrich) that dyes collagen fibers in purple-red. […] The evaluation was performed by estimating both color intensity and distribution using IMAGE J (NIH) analysis software, allowing to obtain a semi-quantitative evaluation of dermal collagen (collagen score). Two slides of each skin sample were processed by image acquisition and related analysis (i.e. 12 images for each treatment).

T1 sequence (P28845 whole entry): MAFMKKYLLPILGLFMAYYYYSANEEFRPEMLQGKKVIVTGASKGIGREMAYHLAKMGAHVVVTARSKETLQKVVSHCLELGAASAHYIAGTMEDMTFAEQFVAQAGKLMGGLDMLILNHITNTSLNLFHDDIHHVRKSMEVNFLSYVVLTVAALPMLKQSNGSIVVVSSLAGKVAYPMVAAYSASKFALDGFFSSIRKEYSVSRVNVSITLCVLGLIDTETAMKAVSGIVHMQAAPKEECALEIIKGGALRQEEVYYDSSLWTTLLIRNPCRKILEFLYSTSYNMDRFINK

| 11β-HSD1 Residual activity, % of control at 100 nM [1] | 11β-HSD1 Residual activity, % of control at 1 μM [1] | IC50 [1] | activity towards 11β-HSD1, effect of substituent (in words) ([1]; cell lysates) | melting point | activity towards 11β-HSD1 (in words) ([1]; at 1 μM, cell lysates) | Structure (SMILES) | 11β-HSD2 Residual activity, % of control at 1 μM [2] | decrease in dermal collagen (human skin biopsies) |
| --- | --- | --- | --- | --- | --- | --- | --- | --- |
| 44 % of control | 4 % of control | – | – | – | – | Cc1ccc(-c2cccc(C(=O)N3CC(C)OC(C)C3)c2)cc1F (centres unmarked) [3d, (2,6-Dimethylmorpholino)(3’-fluoro-4’-methyl-[1,1’-biphenyl]-3-yl)methanone] | > 90 % of control | – |
| 58 % of control | 3 % of control | – | – | – | – | CC1CCN(C(=O)c2cccc(-c3ccc(Cl)cc3)c2)CC1 [5b, (4’-Chloro-[1,1’-biphenyl]-3-yl)(4-methylpiperidin-1-yl)methanone] | > 90 % of control | – |
| 43 % of control | 4 % of control | – | – | – | – | CC1CCN(C(=O)c2cccc(-c3ccc(F)cc3)c2)CC1 [4b, (4’-Fluoro-[1,1’-biphenyl]-3-yl)(4-methylpiperidin-1-yl)methanone] | > 90 % of control | – |
| 44 % of control | 1 % of control | 53.8 nM | – | – | – | Cc1ccc(-c2cccc(C(=O)N3CCC(C)CC3)c2)cc1F [3b] | > 90 % of control | – |
| > 90 % of control | > 90 % of control | – | abolished the activity | 73 to 75 °C | – | Cc1ccc(-c2cccc(C(=O)N3CCC[C@H]3C(N)=O)c2)cc1F [3f, (S)-1-(3’-fluoro-4’-methyl-[1,1’-biphenyl]-3-carbonyl)-pyrrolidine-2-carboxamide] | > 90 % of control | – |
| 17 % of control | – | 37.4 nM | – | 109 to 111 °C | – | Cc1ccc(-c2cccc(C(=O)N3CCCCCC3)c2)cc1 [1e, Azepan-1-yl(4’-methyl-[1,1’-biphenyl]-3-yl)methanone] | > 90 % of control | – |
| 50 % of control | 2 % of control | – | – | 116 to 117 °C | – | O=C(c1cccc(-c2ccc(Cl)cc2)c1)N1CCCCCC1 [5e, Azepan-1-yl(4’-chloro-[1,1’-biphenyl]-3-yl)methanone] | > 90 % of control | – |
| 70 % of control | 8 % of control | – | lower activity | – | – | CC1CCN(C(=O)c2cccc(-c3cccc(O)c3)c2)CC1 [8b, (3’-Hydroxy-[1,1’-biphenyl]-3-yl)(4-methylpiperidin-1-yl)methanone] | > 90 % of control | – |
| 60 % of control | 3 % of control | 47.2 nM | – | – | – | Cc1ccc(-c2cccc(C(=O)N3CCCC(C)(C)C3)c2)cc1F [3a, (3,3-Dimethylpiperidin-1-yl)(3’-fluoro-4’-methyl-[1,1’-biphenyl]-3-yl)methanone] | > 90 % of control | – |
| 65 % of control | 19 % of control | – | substantial loss of activity | 188 to 190 °C | – | CC1CCN(C(=O)c2cccc(-c3ccc(C(N)=O)cc3)c2)CC1 [9b, 3’-(4-methylpiperidine-1-carbonyl)-[1,1’-biphenyl]-4-carboxamide] | > 90 % of control | – |
| – | – | – | – | – | – | C[C@]12CCC(=O)C=C1CC[C@@H]1[C@@H]2C(=O)C[C@@]2(C)[C@H]1CC[C@]2(O)C(=O)CO [cortisone, reference compound] | – | 20–26% |
| 14 % of control | 1 % of control | 27.9 nM | – | – | – | Cc1ccc(-c2cccc(C(=O)N3CCOC(C)(C)C3)c2)cc1F [3c, (2,2-Dimethylmorpholino)(3’-fluoro-4’-methyl-[1,1’-biphenyl]-3-yl)methanone] | – | – |
| 89 % of control | 34 % of control | – | substantial loss of activity | – | – | CC1CCN(C(=O)c2cccc(-c3cccc(C(N)=O)c3)c2)CC1 [10b, 3’-(4-methylpiperidine-1-carbonyl)-[1,1’-biphenyl]-3-carboxamide] | > 90 % of control | – |
| 30 % of control | – | 46 nM | – | – | – | Cc1ccc(-c2cccc(C(=O)N3CCCCCC3)c2)cn1 [2e, Azepan-1-yl-(3-(6-methylpyridin-3-yl)phenyl)methanone] | > 90 % of control | – |
| 52 % of control | 1 % of control | 47.7 nM | – | – | – | Cc1ccc(-c2cccc(C(=O)N3CCC(C)CC3)c2)cc1 [1b, (4’-Methyl-[1,1’-biphenyl]-3-yl)(4-methylpiperidin-1-yl)methanone] | > 90 % of control | – |
| 69 % of control | – | – | lower activity | – | – | Cc1ccc(-c2cccc(C(=O)N3CCCCCC3)c2)cc1C [11e, Azepan-1-yl(3’,4’-dimethyl-[1,1’-biphenyl]-3-yl)methanone] | > 90 % of control | – |
| 49 % of control | 4 % of control | 62.2 nM | – | – | – | CC1CCN(C(=O)c2cccc(-c3ccccc3Cl)c2)CC1 [6b, (2’-Chloro-[1,1’-biphenyl]-3-yl)(4-methylpiperidin-1-yl)methanone] | > 90 % of control | – |
| > 90 % of control | > 90 % of control | – | – | – | inactive | NC(=O)[C@@H]1CCCN1C(=O)c1cccc(-c2ccccc2Cl)c1 [6f, (S)-1-(2’-Chloro-[1,1’-biphenyl]-3-carbonyl)-pyrrolidine-2-carboxamide] | > 90 % of control | – |
| 28 % of control | – | – | – | 184 to 185 °C | – | O=C(c1cccc(-c2ccc(O)cc2)c1)N1CCCCCC1 [7e, Azepan-1-yl(4’-hydroxy-[1,1’-biphenyl]-3-yl)methanone] | > 90 % of control | – |
